Results from US20170290882A1, “Specific Combined Therapy of Malignant Tumors with a Cytostatic and Its Modifier” (priority 2015, published 2017).

Legend:
[1] = test system: P388 lymphoplastic leukemia; test: Combined therapy DDP+GMDP-A in the P388 lymphoplastic leukemia model; format: in vivo, mice BDF1; details: late start (5th day); 10-fold GMDP-A 3.75 mg/kg s.c.; DDP, if given, single 4 mg/kg i.v.
Experimental: (§1) They were transplanted on the right-side surface of the animal body.
(§2) The animals with tumors were treated in test groups at the early (24 hours after tumor inoculation) and late (5 days after tumor inoculation) terms of the tumor growth using a single cytostatic injection intravenously in a dose equal to ½ or ¼ of therapeutic one and various schedules for GMDP-A injection: • Primary subcutaneous injection of GMDP-A modifier in a single dose 3.75 mg/kg; • Repeated protracted subcutaneous administration of GMDP-A modifier according to different schedules: 4-fold, 9-fold and 20-fold, once per day, in a single dose of 3.75 mg/kg (course dose is 18.75 mg/kg, 37.5 mg/kg and 78.75 mg/kg, correspondingly). Dosage frequency depends upon the model (histological form of transplanted tumor).
(§3) To identify efficiency of the claimed combined therapy, independent medication was carried out as a control after tumor inoculation using one component of binary therapy-cytostatic drug or a modifier. Cytostatic was injected intravenously in amount of ½ or ¼ of therapeutic dose once after 24 hours or 5 days after tumor inoculation; GMDP-A modifier was administered subcutaneously in a single dose of 3.75 mg/kg 5-fold from the 1st day to the 5th day or from the 5th day to the 9th day, or 10-fold from the 1st day to the 10th day or from the 5th day to the 14th day, or 21-fold from the 1st day to the 21st day after tumor inoculation.
(§4) Anti-tumor efficiency of the claimed combined therapy and comparative monotherapy using only a cytostatic or only GMDP-A modifier was assessed by the criteria commonly used in experimental oncology: tumor volume (TV), tumor growth inhibition (TGI), increase of the animal life time (ILT), tumor metastasis frequency (MF), metastasis inhibition rate (MI).
Efficiency of the combined therapy—chemotherapy with cisplatin cytostatic (DDP) and bioherapy with GMDP-A was assessed on P388 lymphoplastic leukemia model inoculated to mice BDF1, females, subcutaneously on the right-side body surface.
GMDP-A was administered to mice subcutaneously as a single dose of 3.75 mg/kg every day with different schedules: • Five-fold (total dose is 18.75 mg/kg) on the 1st day to the 5th day or on the 5th day to the 9th day after tumor inoculation; • Ten-fold (total dose is 37.5 mg/kg) on the 1st day to the 10th day or on the 5th day to the 14th day after tumor inoculation; • Twenty-one-fold (total dose is 78.75 mg/kg) on the 1st day to the 21st st day after tumor inoculation.
DDP (Cisplatin, Cisplatin Teva trade mark, manufacturer is Teva Pharmaceutical Industries Ltd., Israel, fabricated at Pharmachemie B.V., the Netherlands) was administered intravenously as a single dose ma 4 mg/kg (½ of therapeutic dose).

B16 melanoma = test: Binary therapy DDP+GMDP-A in the B16 melanoma model; format: in vivo, BDF1 mice; details: for Tumor volume / tumor growth inhibition (TGI) / Average life time / ILT (increase of the animal life time) / Metastasis MF (tumor metastasis frequency) / Metastasis MI (metastasis inhibition rate): DDP, if given, single 4 mg/kg i.v.
Experimental: as §1, §2, §3, §4
Efficiency of the combined therapy—chemotherapy with DDP cytostatic and biotherapy with GMDP-A was assessed on B16 melanoma model inoculated to BDF1 mice, females, subcutaneously on the right-side body surface.
1 mg/ml GMDP-A solution for subcutaneous injection was prepared by dissolving GMDP-A lyophilisate in water for injections.
GMDP-A was administered to mice subcutaneously as a single dose of 3.75 mg/kg every day with different schedules:
Five-fold (total dose is 18.75 mg/kg) on the 1st day to the 5th day or on the 5th day to the 9th day after tumor inoculation;
Ten-fold (total dose is 37.5 mg/kg) on the 1st day to the 10th day or on the 5th day to the 14th day after tumor inoculation;
DDP (Cisplatin, Cisplatin Teva trade mark, manufacturer is Teva Pharmaceutical Industries Ltd., Israel, fabricated at Pharmachemie B.V., the Netherlands) was administered intravenously as a single dose of 4 mg/kg (½ of therapeutic dose).

[2] = at assumed therapeutic dose and at its five-fold excess; cited from earlier work
[3] = day 7, early start (1st day), 5-fold GMDP-A 3.75 mg/kg s.c.
[4] = day 7, early start (1st day), 10-fold GMDP-A 3.75 mg/kg s.c.
[5] = day 9, early start (1st day), 5-fold GMDP-A 3.75 mg/kg s.c.
[6] = day 9, early start (1st day), 10-fold GMDP-A 3.75 mg/kg s.c.
[7] = day 9, late start (5th day), 5-fold GMDP-A 3.75 mg/kg s.c.
[8] = day 9, late start (5th day), 10-fold GMDP-A 3.75 mg/kg s.c.
[9] = day 12, early start (1st day), 5-fold GMDP-A 3.75 mg/kg s.c.
[10] = day 12, early start (1st day), 10-fold GMDP-A 3.75 mg/kg s.c.
[11] = day 12, late start (5th day), 5-fold GMDP-A 3.75 mg/kg s.c.
[12] = day 12, late start (5th day), 10-fold GMDP-A 3.75 mg/kg s.c.
[13] = day 14, early start (1st day), 5-fold GMDP-A 3.75 mg/kg s.c.
[14] = day 14, early start (1st day), 10-fold GMDP-A 3.75 mg/kg s.c.
[15] = day 14, late start (5th day), 5-fold GMDP-A 3.75 mg/kg s.c.
[16] = day 14, late start (5th day), 10-fold GMDP-A 3.75 mg/kg s.c.
[17] = day 16, early start (1st day), 5-fold GMDP-A 3.75 mg/kg s.c.
[18] = day 16, early start (1st day), 10-fold GMDP-A 3.75 mg/kg s.c.
[19] = day 16, late start (5th day), 5-fold GMDP-A 3.75 mg/kg s.c.
[20] = day 16, late start (5th day), 10-fold GMDP-A 3.75 mg/kg s.c.
[21] = day 19, early start (1st day), 5-fold GMDP-A 3.75 mg/kg s.c.
[22] = day 19, early start (1st day), 10-fold GMDP-A 3.75 mg/kg s.c.
[23] = day 19, late start (5th day), 5-fold GMDP-A 3.75 mg/kg s.c.
[24] = day 19, late start (5th day), 10-fold GMDP-A 3.75 mg/kg s.c.
[25] = early start (1st day), 5-fold GMDP-A 3.75 mg/kg s.c.
[26] = early start (1st day), 10-fold GMDP-A 3.75 mg/kg s.c.
[27] = late start (5th day), 5-fold GMDP-A 3.75 mg/kg s.c.
[28] = late start (5th day), 10-fold GMDP-A 3.75 mg/kg s.c.

CC(=O)NC1C(OC2C(CO)OC(O)C(NC(C)=O)C2OC(C)C(=O)NC(C)C(=O)NC(CCC(=O)O)C(=O)O)OC(CO)C(O)C1O [GMDP-A, N-acetyl-D-glucosaminyl-β-(1-4)-N-acetylmuramyl-L-alanyl-D-glutamic acid]
ILT (increase of the animal life time) [1]: 0% | Metastasis MF (tumor metastasis frequency) [1]: 100% | Metastasis MI (metastasis inhibition rate) [1]: 8% | Tumor volume (B16 melanoma; [3]): 11 ± 6 mm^3 | tumor growth inhibition (TGI) (B16 melanoma; [3]): 71% | Tumor volume (B16 melanoma; [4]): 15 ± 6 mm^3 | tumor growth inhibition (TGI) (B16 melanoma; [4]): 62% | Tumor volume (B16 melanoma; [5]): 58 ± 11 mm^3 | tumor growth inhibition (TGI) (B16 melanoma; [5]): 51% | Tumor volume (B16 melanoma; [6]): 56 ± 9 mm^3 | tumor growth inhibition (TGI) (B16 melanoma; [6]): 52% | Tumor volume (B16 melanoma; [7]): 61 ± 9 mm^3 | tumor growth inhibition (TGI) (B16 melanoma; [7]): 48% | Tumor volume (B16 melanoma; [8]): 66 ± 14 mm^3 | tumor growth inhibition (TGI) (B16 melanoma; [8]): 44% | Tumor volume (B16 melanoma; [9]): 177 ± 33 mm^3 | tumor growth inhibition (TGI) (B16 melanoma; [9]): 33% | Tumor volume (B16 melanoma; [10]): 162 ± 21 mm^3 | tumor growth inhibition (TGI) (B16 melanoma; [10]): 38% | Tumor volume (B16 melanoma; [11]): 173 ± 17 mm^3 | tumor growth inhibition (TGI) (B16 melanoma; [11]): 34% | Tumor volume (B16 melanoma; [12]): 164 ± 29 mm^3 | tumor growth inhibition (TGI) (B16 melanoma; [12]): 37% | Tumor volume (B16 melanoma; [13]): 347 ± 47 mm^3 | tumor growth inhibition (TGI) (B16 melanoma; [13]): 8% | Tumor volume (B16 melanoma; [14]): 298 ± 44 mm^3 | tumor growth inhibition (TGI) (B16 melanoma; [14]): 21% | Tumor volume (B16 melanoma; [15]): 329 ± 41 mm^3 | tumor growth inhibition (TGI) (B16 melanoma; [15]): 13% | Tumor volume (B16 melanoma; [16]): 269 ± 62 mm^3 | tumor growth inhibition (TGI) (B16 melanoma; [16]): 29% | Tumor volume (B16 melanoma; [17]): 522 ± 82 mm^3 | tumor growth inhibition (TGI) (B16 melanoma; [17]): 6% | Tumor volume (B16 melanoma; [18]): 446 ± 53 mm^3 | tumor growth inhibition (TGI) (B16 melanoma; [18]): 20% | Tumor volume (B16 melanoma; [19]): 391 ± 67 mm^3 | tumor growth inhibition (TGI) (B16 melanoma; [19]): 30% | Tumor volume (B16 melanoma; [20]): 408 ± 79 mm^3 | tumor growth inhibition (TGI) (B16 melanoma; [20]): 27% | Tumor volume (B16 melanoma; [21]): 690 ± 208 mm^3 | tumor growth inhibition (TGI) (B16 melanoma; [21]): 10% | Tumor volume (B16 melanoma; [22]): 894 ± 99 mm^3 | tumor growth inhibition (TGI) (B16 melanoma; [22]): 16% | Tumor volume (B16 melanoma; [23]): 817 ± 234 mm^3 | tumor growth inhibition (TGI) (B16 melanoma; [23]): 23% | Tumor volume (B16 melanoma; [24]): 882 ± 238 mm^3 | tumor growth inhibition (TGI) (B16 melanoma; [24]): 17% | Average life time (B16 melanoma; [25]): 21 ± 4 days | ILT (increase of the animal life time) (B16 melanoma; [25]): 0% | Metastasis MF (tumor metastasis frequency) (B16 melanoma; [25]): 80% | Metastasis MI (metastasis inhibition rate) (B16 melanoma; [25]): 29% | Average life time (B16 melanoma; [26]): 27 ± 4 days | ILT (increase of the animal life time) (B16 melanoma; [26]): 29% | Metastasis MF (tumor metastasis frequency) (B16 melanoma; [26]): 40% | Metastasis MI (metastasis inhibition rate) (B16 melanoma; [26]): 81% | efficiency for individual use (without chemotherapy) (B16 melanoma; example 2): did not reach a biologically significant level | Average life time (B16 melanoma; [27]): 18 ± 3 days | ILT (increase of the animal life time) (B16 melanoma; [27]): 0% | Metastasis MF (tumor metastasis frequency) (B16 melanoma; [27]): 100% | Metastasis MI (metastasis inhibition rate) (B16 melanoma; [27]): 5% | Average life time (B16 melanoma; [28]): 24 ± 4 days | ILT (increase of the animal life time) (B16 melanoma; [28]): 14% | Metastasis MF (tumor metastasis frequency) (B16 melanoma; [28]): 100% | Metastasis MI (metastasis inhibition rate) (B16 melanoma; [28]): 8% | Toxic action (acute, chronic and specific toxicity) [2]: no toxic action
